Experimental data published in PubChem BioAssay (NCI).
“And” between values parts separate entries of the source, which are not always exact repeats. Equal entries are not always repeated.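 Method: 48-hour compound exposure of cells in 96-well plates, five concentrations, linear interpolation of endpoints. GI50 is the concentration that inhibits growth by half. TGI: total growth inhibition.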

Tests used:
Assay in all cases: growth of human tumour cells (NCI), 48 h
DMS 273 small cell lung = test system: DMS 273 small cell lung
MALME-3M melanoma = test system: MALME-3M melanoma
LOX IMVI melanoma = test system: LOX IMVI melanoma
UACC-257 melanoma = test system: UACC-257 melanoma
SK-MEL-5 melanoma = test system: SK-MEL-5 melanoma
UO-31 renal = test system: UO-31 renal
SF-268 CNS = test system: SF-268 CNS
IGROV1 ovarian = test system: IGROV1 ovarian
SR leukemia = test system: SR leukemia
HCC-2998 colon = test system: HCC-2998 colon

Compound	TGI (DMS 273 small cell lung) [µM]	TGI (MALME-3M melanoma)	TGI (LOX IMVI melanoma)	TGI (UACC-257 melanoma)	TGI (SK-MEL-5 melanoma)	TGI (UO-31 renal)	TGI (SF-268 CNS)	TGI (IGROV1 ovarian)	GI50 (MALME-3M melanoma)	GI50 (LOX IMVI melanoma)	GI50 (UACC-257 melanoma)	GI50 (SR leukemia)	TGI (SR leukemia)	GI50 (SK-MEL-5 melanoma)	GI50 (UO-31 renal)	GI50 (SF-268 CNS)	GI50 (IGROV1 ovarian)	GI50 (HCC-2998 colon)	TGI (HCC-2998 colon)
Cc1ccccc1C1=C(C(=O)Nc2ccc(Cl)c(Cl)c2)NC(=S)NC1N (stereo not given)	> 100	> 100 µM	> 100 µM	> 100 µM	> 100 µM	> 100 µM	> 100 µM	> 100 µM	–	–	–	–	–	–	–	–	–	–	–
Cc1ccc(-c2csc(NC(=O)CN3CCN(c4cc5c(cc4F)c(=O)c(C(=O)O)cn5C4CC4)CC3)n2)cc1	–	7.14 µM	29.2 µM	6.18 µM	2.89 µM	41.1 µM	> 100 µM	17 µM	1.75 µM	0.482 µM	1.91 µM	0.645 µM	6.87 µM	1.02 µM	1.04 µM	0.493 µM	0.739 µM	2.04 µM	> 100 µM
Cc1ccc(-c2cc(-c3ccccc3)c(C#N)c(=O)n2C2OC(CO)C(O)C(O)C2O)cc1 (stereo not given)	> 100	> 100 µM	> 100 µM	> 100 µM	> 100 µM	> 100 µM	> 100 µM	> 100 µM	–	–	–	–	–	–	–	–	–	–	> 100 µM
COC(=O)C(=O)C(C(=O)C(=O)Nc1cccc(C(C)=O)c1)c1nc2ccccc2[nH]c1=O (stereo not given)	> 100	> 100 µM	> 100 µM	> 100 µM	> 100 µM	> 100 µM	> 100 µM	> 100 µM	–	–	–	–	–	–	–	–	–	–	> 100 µM
CCCOc1ccc2nc(NC(=O)OC)[nH]c2c1	–	> 100 µM	> 100 µM	> 100 µM	1.73 µM	> 100 µM	> 100 µM	> 100 µM	2.72 µM	0.778 µM	> 100 µM	0.0319 µM	> 100 µM	0.0796 µM	0.501 µM	2.43 µM	0.481 µM	0.232 µM	–
NC(N)=NCCC1OC(=O)C2=C1c1c(O)ccc3nccc(c13)O2 (stereo not given)	–	> 100 µM	> 100 µM	> 100 µM	> 100 µM	> 100 µM	> 100 µM	> 100 µM	> 100 µM	> 100 µM	1.73 µM	> 100 µM	> 100 µM	62.1 µM	> 100 µM	23.8 µM	> 100 µM	> 100 µM	> 100 µM
CCOc1cccc(/C=N/NC(=O)C(=O)Nc2cccc(C(F)(F)F)c2)c1O	–	64.2 µM	22.2 µM	25 µM	19 µM	18.5 µM	97 µM	25.8 µM	4.35 µM	1.44 µM	2.57 µM	0.705 µM	15.4 µM	1.87 µM	0.63 µM	1.24 µM	1.3 µM	3.28 µM	> 100 µM
C=CC(=O)Nc1cc2c(Nc3ccc(F)c(Cl)c3)ncnc2cc1OCCCN1CCOCC1	–	5.84 µM and > 10 µM	2.7 µM and 3.32 µM	12.8 µM and > 10 µM	13.3 µM and > 10 µM	12.9 µM and > 8.65 µM	5.13 µM and > 10 µM	3.26 µM and 2.88 µM	2.41 µM and 6.17 µM	1.29 µM and 1.69 µM	3.42 µM and 9.15 µM	1.72 µM and 2.3 µM	> 21 µM and 6.51 µM	3.3 µM and > 7.32 µM	0.288 µM and 0.103 µM	1.77 µM and 3.47 µM	0.993 µM and 0.284 µM	1.82 µM and 2.67 µM	3.46 µM and > 6.08 µM
